Assay results from patent US8134015B2, “Compound inhibiting in vivo phosphorous transport and medicine containing the same” (Kyowa Hakko Kirin Co., Ltd., priority 2003, dated 2012).

Target: T1, rat NaPi-2b (Rattus norvegicus, UniProt Q9JJ09)
T1 construct: expressed in transfected cells; host or cells: Xenopus oocytes injected with cRNA
T1 sequence (Q9JJ09 1-695): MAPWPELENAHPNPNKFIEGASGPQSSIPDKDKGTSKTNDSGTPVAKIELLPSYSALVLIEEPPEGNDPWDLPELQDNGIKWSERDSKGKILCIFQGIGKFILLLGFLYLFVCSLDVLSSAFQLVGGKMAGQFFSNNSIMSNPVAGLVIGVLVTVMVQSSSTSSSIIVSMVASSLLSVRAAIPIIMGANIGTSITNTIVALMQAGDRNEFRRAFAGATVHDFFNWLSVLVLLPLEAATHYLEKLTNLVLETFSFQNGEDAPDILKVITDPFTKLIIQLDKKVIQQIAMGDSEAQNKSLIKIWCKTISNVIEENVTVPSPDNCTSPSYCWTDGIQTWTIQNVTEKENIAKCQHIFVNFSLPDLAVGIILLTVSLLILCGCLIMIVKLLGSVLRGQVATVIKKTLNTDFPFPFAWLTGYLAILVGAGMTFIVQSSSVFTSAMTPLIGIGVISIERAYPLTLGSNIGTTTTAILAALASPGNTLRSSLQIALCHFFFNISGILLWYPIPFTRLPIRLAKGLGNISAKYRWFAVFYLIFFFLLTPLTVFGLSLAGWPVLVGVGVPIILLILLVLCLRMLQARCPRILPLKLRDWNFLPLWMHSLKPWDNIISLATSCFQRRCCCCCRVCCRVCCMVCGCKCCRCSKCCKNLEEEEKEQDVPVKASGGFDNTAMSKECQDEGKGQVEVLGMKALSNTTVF
Test: Sodium-dependent phosphate uptake of Xenopus oocytes which expressed NaPi-2b (32P)
Type: cell-based
Conditions: for IC50: Xenopus oocytes expressing rat NaPi-2b, 32P radioactive phosphorus, read-out: IC50 (phosphate uptake inhibitory activity)
Method in brief: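 Rat small-intestine NaPi-2b cRNA injected into Xenopus oocytes, expressed for 2 days. Sodium-dependent phosphate uptake measured with 32P; % inhibition at 300 and 100 μM taken from the same inhibition curve.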

Row | IC50 [µM] | inhibition at 300 µM (phosphate uptake, oocytes expressing rat NaPi-2b, 300 μM, determined from inhibition curve) [%] | SMILES
1 | 0.21 |  | O=C(Nc1ccc(Br)cc1C(=O)N/N=C/c1cccc(F)c1)c1cccc(CSc2nc[nH]n2)c1 [Compound 271, N-[4-Bromo-2-(3-fluoro-benzylidene-hydrazinocarbonyl)-phenyl]-3-(1H-[1,2,4]triazol-3-ylsulfanylmethyl)-benzamide]
2 | 55.5 |  | COc1ccc(C(=O)Nc2ccc(OCCN(C)C)cc2C(=O)N/N=C/c2ccc(F)cc2)cc1OC [Compound 139, N-[4-(2-Dimethylamino-ethoxy-)-2-(4-fluoro-benzylidene-hydrazinocarbonyl)-phenyl]-3,4-dimethoxy-benzamide]
3 | 8.78 |  | O=C(Nc1ccc(Cl)cc1C(=O)N/N=C/C=C/c1ccccc1)c1ccncc1 [Compound 349, N-[4-Chloro-2-(3-phenyl-allylidene-hydrazinocarbonyl)-phenyl]-isonicotinamide]
4 | 1.24 |  | COc1ccc(/C=N/NC(=O)c2cc(N3CCCCC3)ccc2NC(=O)c2cccc(CSCCO)c2)cc1 [Compound 885, 3-(2-Hydroxy-ethylsulfanylmethyl)-N-[2-(4-methoxy-benzylidene-hydrazinocarbonyl)-4-piperidin-1-yl-phenyl]-benzamide]
5 |  | 37.9 | COc1ccc(C(=O)Nc2ccccc2C(=O)N/N=C/c2ccc(Br)cc2)cc1OC [Compound 234, N-[2-(4-Bromo-benzylidene-hydrazinocarbonyl)-phenyl]-3,4-dimethoxy-benzamide]
6 | 7.88 |  | COc1ccc(/C(C)=N/NC(=O)c2cc(Br)ccc2NC(=O)c2cccc(CN(CC(C)O)CC(C)O)c2)cc1 (stereo not shown) [Compound 997, 3-{[Bis-(2-hydroxy-propyl)-amino]-methyl}-N-{4-bromo-2-[1-(4-methoxy-phenyl)-ethylidene-hydrazinocarbonyl]-phenyl}-benzamide]
7 | 4.1 |  | Cc1ccc(/C=N/NC(=O)c2cc(Br)ccc2NC(=O)c2cccnc2)cc1C [Compound 176, N-[4-Bromo-2-(3,4-dimethyl-benzylidene-hydrazinocarbonyl)-phenyl]-nicotinamide]
8 | 4.25 |  | O=C(Nc1sc2c(c1C(=O)N/N=C/c1cccc(F)c1)CCCC2)c1cccc(CN2CCC(N3CCCCC3)CC2)c1 [Compound 618, 3-[1,4′]Bipiperidinyl-1′-ylmethyl-N-[3-(3-fluoro-benzylidene-hydrazinocarbonyl)-4,5,6,7-tetrahydro-benzo[b]thiophen-2-yl]-benzamide]
9 | < 3 |  | CCN1CC(NCc2ccc(C(=O)Nc3ccc(Br)cc3C(=O)N/N=C/c3cccc(F)c3)cc2)CN1CC [Compound 752, N-[4-Bromo-2-(3-fluoro-benzylidene-hydrazinocarbonyl)-phenyl]-4-[(1,2-diethyl-pyrazolidin-4-ylamino)-methyl]-benzamide]
10 | 11.3 |  | Cc1cc(/C=N/NC(=O)c2cc(Cl)ccc2NC(=O)c2ccncc2)oc1C [Compound 223, N-[4-Chloro-2-(4,5-dimethyl-furan-2-ylmethylene-hydrazinocarbonyl)-phenyl]-isonicotinamide]
11 | 0.4 |  | O=C(Nc1ccc(Cl)cc1C(=O)N/N=C/c1cccc(F)c1)c1cccc(CSCC(O)CO)c1 (stereo not shown) [Compound 1007, N-[4-Chloro-2-(3-fluoro-benzylidene-hydrazinocarbonyl)-phenyl]-3-(2,3-dihydroxy-propylsulfanylmethyl)-benzamide]
12 | 3.82 |  | COc1ccc(NC(=O)c2ccc(OC)c(OC)c2)c(C(=O)N/N=C/c2ccc(C)c(C)c2)c1 [Compound 145, N-[2-(3,4-Dimethyl-benzylidene-hydrazinocarbonyl)-4-methoxy-phenyl]-3,4-dimethoxy-benzamide]
13 | 1.54 |  | COc1ccccc1/C=C/C=N/NC(=O)c1cc(Cl)ccc1NC(=O)c1cccnc1 [Compound 354, N-{4-Chloro-2-[3-(2-methoxy-phenyl)-allylidene-hydrazinocarbonyl]-phenyl}-nicotinamide]
